These results are taken from patent US20250002475A1 (EPICS THERAPEUTICS, priority 2023, published 2025).

The subject of experiment [1] is Kasumi-1 cells. Put plainly: Kasumi-1 cellular viability assay (ATP-Lite, 72 h). It is filed as cell-based. The note with it: Homo sapiens, ATP-Lite luminescence, % viability relative to DMSO. In outline:
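Viability was read by ATP-Lite One Step luminescence after 72 h compound treatment at 37 °C/5% CO2, normalised to DMSO control, with IC50 fitted from concentration-response. Cells were Kasumi-1 (AML FAB M2) at 15000 per well in RPMI-1640/10% FBS, 0.1% DMSO final.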

The subject of experiment [2] is Caov-3 cells. Put plainly: Caov-3 cellular viability assay (ATP-Lite, 72 h). The format is cell-based. The note with it: Homo sapiens, ATP-Lite luminescence, % viability relative to DMSO. In outline: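 IC50 values come from concentration-response fits of luminescent ATP content (ATP-Lite One Step), normalised as % viability versus DMSO. Compound exposure was 72 h at 37 °C in RPMI-1640/10% FBS with 0.1% final DMSO. Wells held 10000 cells each.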

In experiment [3] the target is T1, recombinant METTL3/METTL14 complex (Homo sapiens, UniProt Q86U44).
T1 construct: purchased Active Motif 311970; host or cells: Sf9 cells
T1 sequence (Q86U44 whole entry): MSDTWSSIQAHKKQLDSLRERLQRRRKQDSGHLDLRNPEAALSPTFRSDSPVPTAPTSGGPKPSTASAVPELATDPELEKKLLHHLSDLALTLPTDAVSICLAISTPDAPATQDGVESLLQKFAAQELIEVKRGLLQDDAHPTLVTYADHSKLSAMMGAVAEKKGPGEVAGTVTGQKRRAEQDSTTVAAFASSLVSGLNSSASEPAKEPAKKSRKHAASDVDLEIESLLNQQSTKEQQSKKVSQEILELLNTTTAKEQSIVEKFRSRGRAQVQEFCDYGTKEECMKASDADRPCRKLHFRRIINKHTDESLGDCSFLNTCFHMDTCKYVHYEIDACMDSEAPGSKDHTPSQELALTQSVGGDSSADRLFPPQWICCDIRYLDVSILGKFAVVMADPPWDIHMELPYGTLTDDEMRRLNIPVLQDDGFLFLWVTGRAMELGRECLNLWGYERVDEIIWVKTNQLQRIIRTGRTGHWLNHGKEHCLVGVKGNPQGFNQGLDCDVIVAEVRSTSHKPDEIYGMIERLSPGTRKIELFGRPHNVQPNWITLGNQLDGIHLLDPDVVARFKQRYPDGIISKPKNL
T1 sequence (Q9HCE5 whole entry partner): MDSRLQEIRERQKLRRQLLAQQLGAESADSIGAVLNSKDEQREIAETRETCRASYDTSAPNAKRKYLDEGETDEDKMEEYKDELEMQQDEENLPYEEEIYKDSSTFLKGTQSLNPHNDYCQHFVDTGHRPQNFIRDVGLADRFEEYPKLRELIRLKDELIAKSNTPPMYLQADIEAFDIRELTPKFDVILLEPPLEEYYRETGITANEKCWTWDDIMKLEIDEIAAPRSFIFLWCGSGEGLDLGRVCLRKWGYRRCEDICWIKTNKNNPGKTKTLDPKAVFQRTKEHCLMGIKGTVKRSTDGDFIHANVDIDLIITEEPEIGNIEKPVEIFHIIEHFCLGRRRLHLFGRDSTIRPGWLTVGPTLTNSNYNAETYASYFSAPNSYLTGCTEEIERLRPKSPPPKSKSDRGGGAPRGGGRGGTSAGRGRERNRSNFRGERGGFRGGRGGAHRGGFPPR
Put plainly: METTL3/14 Scintillation Proximity Assay (SPA), RNA methyltransferase activity. The settings on record: 5.31 nM METTL3/14 complex, 250 nM RNA substrate, 1 μM 3H-SAM, 90 min; for compounds marked * best of the two separated forms. The format is biochemical.

As for `CC1CN(c2cncc(-c3cn(C(C)n4ccc(N5CCC[C@@H](NCC6CCC6)C5)cc4=O)nn3)c2)C1` (single isomer, unassigned) [Compound 177], the IC50 in experiment [1] is ≤ 500 nM; in experiment [2], ≤ 500 nM; in experiment [3], ≤ 50 nM.

With `O=C(Nc1cc(=O)n2ccccc2n1)C1(c2ccc(N3CCC[C@@H](NCC4CCC4)C3)cc2)COC1` [Compound 278, (R)-3-(4-(3-((cyclobutylmethyl)amino)piperidin-1-yl)phenyl)-N-(4-oxo-4H-pyrido[1,2-a]pyrimidin-2-yl)oxetane-3-carboxamide], the IC50 in experiment [1] was ≤ 500 nM; in experiment [2], ≤ 500 nM; in experiment [3] it was ≤ 50 nM.

For the compound `c1cc(C2(n3cc(-c4cncc(N5CCCC5)n4)nn3)COC2)ncc1N1CCC[C@@H](NCC2CC2)C1` [Compound 185, (R)-N-(cyclopropylmethyl)-1-(6-(3-(4-(6-(pyrrolidin-1-yl)pyrazin-2-yl)-1H-1,2,3-triazol-1-yl)oxetan-3-yl)pyridin-3-yl)piperidin-3-amine], the figures for the half-inhibitory concentration (IC50) in experiment [1], in experiment [2] and in experiment [3] were ≤ 500 nM, ≤ 500 nM and ≤ 50 nM, respectively.

As for `c1cc(C2(n3cc(-c4cncc(N5CCCC5)n4)nn3)COC2)ncc1N1CCCC(NCC2CCC2)C1` (stereo in doubt) [Compound 290, (R)-N-(cyclobutylmethyl)-1-(6-(3-(4-(6-(pyrrolidin-1-yl)pyrazin-2-yl)-1H-1,2,3-triazol-1-yl)oxetan-3-yl)pyridin-3-yl)piperidin-3-amine], the IC50 in experiment [1] is ≤ 500 nM; in experiment [2], ≤ 500 nM; in experiment [3], ≤ 50 nM.

Take `COc1cncc(-c2cn(C(C)c3ccc(N4CCC[C@@H](NCC5CCC5)C4)cc3)nn2)c1` (mixture of isomers) [Compound 076, (3R)-N-(cyclobutylmethyl)-1-(4-(1-(4-(5-methoxypyridin-3-yl)-1H-1,2,3-triazol-1-yl)ethyl)phenyl)piperidin-3-amine]: the IC50 was 500 to 5000 nM in experiment [1], 500 to 5000 nM in experiment [2] and ≤ 50 nM in experiment [3].

Consider `COc1cncc(-c2cn(Cc3ccc(N4CCC[C@@H](NCC5CCC5)C4)cc3)nn2)c1` [Compound 068, (R)-N-(cyclobutylmethyl)-1-(4-((4-(5-methoxypyridin-3-yl)-1H-1,2,3-triazol-1-yl)methyl)phenyl) piperidin-3-amine], for which the IC50 was 500 to 5000 nM in experiment [1], 500 to 5000 nM in experiment [2] and ≤ 50 nM in experiment [3].

Consider `COc1cncc(-c2cn([C@H](C)n3ccc(N4CCC[C@@H](NCC5CCC5)C4)cc3=S)nn2)c1` [Compound 116, 4-((R)-3-((cyclobutylmethyl)amino)piperidin-1-yl)-1-((R)-1-(4-(5-methoxypyridin-3-yl)-1H-1,2,3-triazol-1-yl)ethyl)pyridine-2(1H)-thione], for which the IC50 in experiment [1] is ≤ 500 nM; in experiment [2], ≤ 500 nM; in experiment [3], ≤ 50 nM.

For the compound `O=C(Nc1cc(=O)n2ccccc2n1)C1(c2ccc(N3CCC[C@@H](NC4CCCC4)C3)cn2)COC1` [Compound 326, (R)-3-(5-(3-(cyclopentylamino)piperidin-1-yl)pyridin-2-yl)-N-(4-oxo-4H-pyrido[1,2-a]pyrimidin-2-yl)oxetane-3-carboxamide], the IC50 in experiment [1] was 500 to 5000 nM; in experiment [2], ≤ 500 nM; in experiment [3], ≤ 50 nM.

In the case of `CC(c1cnn(-c2cncc(C3CC3)c2)c1)c1ccc(N2CCC[C@@H](NCC3CC3)C2)cn1` (single isomer, unassigned) [Compound 356], the IC50 in experiment [1] is ≤ 500 nM; in experiment [2] it was ≤ 500 nM; in experiment [3], ≤ 50 nM.

Turning to `O=C(Nc1cc(=O)n2ccccc2n1)C1(c2ccc(N3CCC[C@@H](NC4CCC4)C3)cn2)COC1` [Compound 327, (R)-3-(5-(3-(cyclobutylamino)piperidin-1-yl)pyridin-2-yl)-N-(4-oxo-4H-pyrido[1,2-a]pyrimidin-2-yl)oxetane-3-carboxamide], the IC50 was 500 to 5000 nM in experiment [1], 500 to 5000 nM in experiment [2] and ≤ 50 nM in experiment [3].

As for `COc1cncc(-c2cn(Cn3ccc(N4CCC[C@@H](NCC5CCC5)C4)cc3=O)nn2)c1` [Compound 063, (R)-4-(3-((cyclobutylmethyl)amino)piperidin-1-yl)-1-((4-(5-methoxypyridin-3-yl)-1H-1,2,3-triazol-1-yl)methyl)pyridin-2(1H)-one], the IC50 is 500 to 5000 nM in experiment [1], 500 to 5000 nM in experiment [2] and ≤ 50 nM in experiment [3].

On to `O=C(Nc1cc(=O)n2ccccc2n1)C1(c2ccc(N3CCC[C@@H](NCC4CCCC4)C3)cn2)COC1` [Compound 325, (R)-3-(5-(3-((cyclopentylmethyl)amino)piperidin-1-yl)pyridin-2-yl)-N-(4-oxo-4H-pyrido[1,2-a]pyrimidin-2-yl)oxetane-3-carboxamide], for which the IC50 is 500 to 5000 nM in experiment [1], ≤ 500 nM in experiment [2] and ≤ 50 nM in experiment [3].

Regarding `O=C(Nc1cncc(N2CCCC2)n1)C1(c2ccc(N3CCC[C@@H](NCC4CCC4)C3)cc2)COC1` [Compound 281, (R)-3-(4-(3-((cyclobutylmethyl)amino)piperidin-1-yl)phenyl)-N-(6-(pyrrolidin-1-yl)pyrazin-2-yl)oxetane-3-carboxamide], the IC50 in experiment [1] was ≤ 500 nM; in experiment [2], ≤ 500 nM; in experiment [3] it was ≤ 50 nM.

Consider `CN(CC1CCC1)[C@@H]1CCCN(c2ccc(C3(C(=O)Nc4cc(=O)n5ccccc5n4)COC3)nc2)C1` [Compound 272, (R)-3-(5-(3-((cyclobutylmethyl)(methyl)amino)piperidin-1-yl)pyridin-2-yl)-N-(4-oxo-4H-pyrido[1,2-a]pyrimidin-2-yl)oxetane-3-carboxamide], for which the IC50 in experiment [1] is 500 to 5000 nM; in experiment [2], 500 to 5000 nM; in experiment [3] it was ≤ 50 nM.

In the case of `c1cc(-c2cn(Cc3ccc(N4CCC[C@@H](NCC5CCC5)C4)nn3)nn2)c2cncn2c1` [Compound 003, (R)-N-(cyclobutylmethyl)-1-(6-((4-(imidazo[1,5-a]pyridin-8-yl)-1H-1,2,3-triazol-1-yl)methyl)pyridazin-3-yl)piperidin-3-amine], the IC50 in experiment [1] was 500 to 5000 nM; in experiment [2] it was > 5000 nM; in experiment [3], ≤ 50 nM.

In the case of `COc1cncc(-n2cc(Cn3ccc(N4CCC[C@@H](NCC5CCC5)C4)cc3=O)nn2)c1` [Compound 075, (R)-4-(3-((cyclobutylmethyl)amino)piperidin-1-yl)-1-((1-(5-methoxypyridin-3-yl)-1H-1,2,3-triazol-4-yl)methyl)pyridin-2(1H)-one], the results for the IC50 in experiment [1], in experiment [2] and in experiment [3] were > 5000 nM, 500 to 5000 nM and ≤ 50 nM, respectively.

With `CC(n1cc(-c2cncc(NCCO)c2)nn1)n1ccc(N2CCC[C@@H](NCC3CC3)C2)cc1=O` (stereo partly drawn) [Compound 205], the IC50 is > 5000 nM in experiment [1], 500 to 5000 nM in experiment [2] and ≤ 50 nM in experiment [3].

In the case of `COc1cncc(-c2cn(C(C)c3ccc(N4CCC[C@@H](NCC5CCC5)C4)nn3)nn2)n1` (single isomer, unassigned) [Compound 258], the results for the IC50 in experiment [1], in experiment [2] and in experiment [3] were 500 to 5000 nM, 500 to 5000 nM and ≤ 50 nM, respectively.

Turning to `O=C(Nc1cc(=O)n2ccccc2n1)C1(c2ccc(N3CCC[C@@H](NCC4CCC4)C3)nc2)COC1` [Compound 322, (R)-3-(6-(3-((cyclobutylmethyl)amino)piperidin-1-yl)pyridin-3-yl)-N-(4-oxo-4H-pyrido[1,2-a]pyrimidin-2-yl)oxetane-3-carboxamide], the values for the IC50 in experiment [1], in experiment [2] and in experiment [3] were 500 to 5000 nM, 500 to 5000 nM and ≤ 50 nM, respectively.

Consider `O=C(Nc1cncc(N2CCCC2)n1)C1(c2ccc(N3CCC[C@@H](NCC4CCC4)C3)cn2)COC1` [Compound 262, (R)-3-(5-(3-((cyclobutylmethyl)amino)piperidin-1-yl)pyridin-2-yl)-N-(6-(pyrrolidin-1-yl)pyrazin-2-yl)oxetane-3-carboxamide], for which the results for the IC50 in experiment [1], in experiment [2] and in experiment [3] were ≤ 500 nM, ≤ 500 nM and ≤ 50 nM, respectively.

Consider `O=C(Nc1cnc2ccccc2n1)C1(c2ccc(N3CCC[C@@H](NCC4CCC4)C3)cn2)COC1` [Compound 297, (R)-3-(5-(3-((cyclobutylmethyl)amino)piperidin-1-Yl)pyridin-2-yl)-N-(quinoxalin-2-yl)oxetane-3-carboxamide], for which the IC50 is > 5000 nM in experiment [1], 500 to 5000 nM in experiment [2] and ≤ 50 nM in experiment [3].

As to `c1cnn(-c2cncc(-c3cn(C4(c5ccc(N6CCC[C@@H](NCC7CCC7)C6)cn5)COC4)nn3)n2)c1` [Compound 289, (R)-1-(6-(3-(4-(6-(1H-pyrazol-1-yl)pyrazin-2-yl)-1H-1,2,3-triazol-1-yl)oxetan-3-yl)pyridin-3-yl)-N-(cyclobutylmethyl)piperidin-3-amine], the half-maximal inhibitory concentration (IC50) in experiment [1] was ≤ 500 nM; in experiment [2], ≤ 500 nM; in experiment [3], ≤ 50 nM.

With `CC(n1cc(-c2cncc(N3CC4(C3)CC4(F)F)n2)nn1)n1ccc(N2CCC[C@@H](NCC3CC3)C2)cc1=O` (single isomer, unassigned) [Compound 254], the IC50 in experiment [1] is ≤ 500 nM; in experiment [2], ≤ 500 nM; in experiment [3], ≤ 50 nM.

With `CC(n1cc(-c2cncc(N3CCCCC3)c2)nn1)n1ccc(N2CCC[C@@H](NCC3CCC3)C2)cc1=O` (single isomer, unassigned) [Compound 178], the IC50 in experiment [1] was ≤ 500 nM; in experiment [2] it was ≤ 500 nM; in experiment [3], ≤ 50 nM.

The IC50 is the concentration needed to halve the response being measured.
